Data published in patent US10512700B2, “Radiohalide-labeled targeted diagnostics and therapeutics” (Memorial Sloan Kettering Cancer Center, priority 2014, dated 2019).
Read-outs that look alike come from different tables or passages of the source. One block for each compound: values may come before it.

How the values were obtained:
[1] = tested on: U251 MG tumor bearing mice; experiment: Biodistribution; type: in vivo, mouse; settings: C-2f, i.v., 120 min post injection, unblocked
Protocol: Biodistribution studies were conducted on female nude mice (8-10 weeks old and 20-25 g in weight, n=21) bearing U251 MG subcutaneous xenografts. The radiolabeled preparation (20-30 μCi of compound C-2d (^131I) in 200 μL of a solution 90% PBS 10% PEG300) was administrated via the lateral tail vein. The compound was allowed to circulate for 2 h post injection at which time mice were sacrificed and organs were harvested (n=3). The radioactive content in tissue of interest (blood, tumor, muscle, bone, liver, spleen, kidney, heart, lung, pancreas, brain, skin, small intestine, large intestine, stomach, tail, thyroid and feces) was measured on a Wizard 2470 Automatic Gamma Counter, and the tissue-associated activity was calculated as the mean % ID/g using the following formula: [(activity in the target organ/grams of tissue)/injected dose]×100%.
Biodistribution studies were performed in subcutaneous U251 MG xenograft bearing athymic nude mice (n=12). Mice were divided in two groups (blocked and unblocked) and administered with C-2f (approximately 50 μCi, 45 mCi/μmol in […], 10% EtOH in 0.9% sterile saline) via tail vein injection. […] Mice were sacrificed by CO2 asphyxiation at 120 min post injection and major organs were collected, weighed, and counted in a WIZARD^2 automatic γ-counter (PerkinElmer, Boston, Mass.). The radiopharmaceutical uptake was expressed as a percentage of injected dose per gram (% ID/g) using the following formula: [(activity in the target organ/grams of tissue)/injected dose]×100%.

[2] = Stability in whole blood (in vitro); type: in vitro ADME; settings: whole human blood, 37° C., 15 to 240 minutes
Protocol: C-2f was then extracted with 750 μL of MeCN, then centrifuged (5 minutes at 5000 rpm) to pellet blood cells and proteins. The supernatant was collected and prepared for HPLC injection by adding 750 μL mQ H2O and filtering. The blood stability was measured by HPLC analysis (Method A).

Blood half-life = type: in vivo, mouse; settings: athymic nude mice, tail vein injection
Protocol: The blood half-life was determined by measuring the activity in serial blood samplings. […] Measurements in counts per minute were calculated as the mean % ID/g. The blood half-life was calculated using Prism 6.0c (GraphPad Software, La Jolla, Calif.).
The blood half-life was calculated by measuring the activity of blood samples collected at different time points p.i. […] The collected blood was weighed and counted in a WIZARD^2 automatic γ-counter (PerkinElmer, Boston, Mass.). The blood half-life was calculated using Prism 6.0c (GraphPad Software, La Jolla, Calif.) using a two-phase decay least squares fitting method and expressed as % ID/g.

[3] = tested on: mice bearing orthotopic U251 MG; experiment: PET/CT imaging using C-2f; type: in vivo, mouse
Protocol: Mice bearing orthotopic U251 MG (n=8) were divided in two groups (unblocked and blocked) and administered with C-2f (150 μCi, 45 mCi/μmol in 300 μL 10% EtOH in 0.9% sterile saline) via tail vein injection. […] Approximately 5 min prior to PET acquisition, mice were anesthetized by inhalation of a mixture of isoflurane (Baxter Healthcare, Deerfield, Ill., USA; 2% isoflurane, 2 L/min medical air) and positioned on the scanner bed. Anesthesia was maintained using a 1% isoflurane/O2 mixture. PET data for each mouse was recorded using static scans of 10 minutes and acquired at 30 and 120 minutes post injection. Quantification (see FIG. 8) and % ID/g values were calculated by manually drawing regions of interests in three different frames and determining the average values using ASI Pro VM™ MicroPET Analysis software (Siemens Medical Solutions, Knoxville, Tex.).

[4] = tested on: orthotopic U251 MG tumor bearing mice; experiment: Autoradiography using C-2f; type: in vivo, mouse
Protocol: One day after PET/CT imaging, the same orthotopic U251 MG tumor bearing mice of Example 4.1.3 were administered with C-2f (80 μCi, 45 mCi/μmol in 300 μL 10% EtOH in 0.9% sterile saline) via tail vein injection. […] The mice were sacrificed after 2 hours and brain and muscle tissues harvested. The collected organs were fixed in Tissue-Tek O.C.T. compound (Sakura Finetek, Torrance, Calif.) and flash-frozen in liquid nitrogen and cut into 20 μm sections using a Vibratome Ultra Pro 5000 Cryostat (Vibratome, St. Louis, Mo.). A storage phosphor autoradiography plate (Fujifilm, BAS-MS2325, Fuji Photo Film, Japan) was exposed to the tissue slices overnight at −20° C. and read the following day (images not shown). Relative count intensity of the sections in each image was quantified using ImageJ 1.47 u processing software (see FIGS. 6A and 6B). Tumor/muscle and brain/muscle ratios were calculated using Prism 6.0c (GraphPad Software, La Jolla, Calif.). The same sections were subsequently subjected to H&E staining (hematoxylin-eosin) for morphological evaluation of tissue pathology and to compare the localization of the radiotracer with the location of tumor tissue (images not shown).

V79 cells = settings: DNA-incorporated; cited from earlier work
[5] = Plasma protein binding, Rapid Equilibrium Dialysis; type: in vitro ADME, mouse; set-up: fraction unbound at 4 h: dose or concentration left out as unconfirmed; settings: 4 h at 37° C.; for % plasma free fraction: 10 μM in mouse serum; for Plasma protein binding: 500 μM in mouse serum
Protocol: The plasma protein fraction was determined using the Rapid Equilibrium Dialysis Device System (LifeTechnologies, Grand Island, N.Y.) according to the manufacturer's protocol.
For each of the iodinated compounds, membrane dialysis was performed with 10 μM of the compound in mouse serum (500 μL) on one side of the membrane and PBS (750 μL) on the other side. The system was sealed with parafilm and incubated for 4 h at 37° C. on an orbital shaker set to 250 rpm. Thereafter, 400 μL of solution was taken from both sides, and samples were treated twice with an equal amount of AcN and vortexed to remove protein before HPLC analysis. After injection (100 μL), the compound peaks from each sample were then integrated, and the protein bound fraction was determined as % bound=[1−(Concentration buffer chamber/Concentration plasma chamber)]×100. The data was analyzed using Prism 6.0c (GraphPad Software, La Jolla, Calif.).
The system was sealed with parafilm and incubated for 4 h at 37° C. on an orbital shaker set to 100 rpm. Thereafter, 50 μL of solution was taken from both sides, and samples were treated with 300 μL of precipitation buffer (90/10 acetonitrile/water with 0.1% formic acid) and vortexed to remove protein before HPLC analysis. […] The data was analyzed using Prism 6.0c (GraphPad Software, La Jolla, Calif.).

U373 MG cells = experiment: In vitro blocking study, competitive inhibition of PARP1i-FL uptake; type: cell-based, human; settings: 5 μM (10-fold excess) with PARP1i-FL 500 nM, 30 minutes
Protocol: (§1) U251 MG or U373 MG (1×10^4 cells per well) cells were seeded into 12 wells each on a 96-well plate and cultured for 24 hours. […] Following incubation, cells were washed twice with media and twice with PBS and imaged with a Zeiss LSM 5Live confocal microscope (images not shown). Fluorescence intensity was then quantified from the images using ImageJ 1.47 u processing software (see FIG. 3).

U251 MG cells = experiment: as above; type: cell-based, human; settings: 5 μM (10-fold excess) with PARP1i-FL 500 nM, 30 minutes
Protocol: as §1

[6] = Chromatographic Hydrophobicity Index (CHI) and log PCHI determination; type: physicochemical; settings: for chromatographic logP: reverse phase HPLC, read-out: logPCHI
Protocol: Chromatographic Hydrophobicity Index (CHI) was determined according to the procedures reported in K. Valko et al, “Chromatographic Hydrophobicity Index by Fast-Gradient RP-HPLC: A High-Throughput Alternative to log P/log D”, Anal. Chem. 1997, 69:2022-29, incorporated by reference herein in its entirety. Briefly, a series of standards with known CHIs were analyzed with reverse phase HPLC. Retention times of the standards along with their known CHIs were plotted with Prism 6.0c software (GraphPad, La Jolla, Calif.). A line was fit to the data to create a calibration curve, which was then used to calculate the CHI of the test chemical entity based on the HPLC retention time.
The log PCHI value was determined according to K. Valko, 1997.

PARP1 = target: T1, PARP1 (Homo sapiens, UniProt P09874); experiment: IC50 determination, Universal PARP Colorimetric Assay Kit; type: biochemical; settings: Table 2, measured against PARP1
T1 construct: purchased Trevigen
Protocol: Inhibition of PARP1 was measured using the Universal PARP Colorimetric Assay Kit (Trevigen®, Gaithersburg, Md.). IC50 values were calculated using Prism 6.0c software (GraphPad, La Jolla, Calif.).
All experiments were carried out in triplicate.

[7] = reported for olaparib; cited from earlier work

T1 sequence (P09874 whole entry, species assumed): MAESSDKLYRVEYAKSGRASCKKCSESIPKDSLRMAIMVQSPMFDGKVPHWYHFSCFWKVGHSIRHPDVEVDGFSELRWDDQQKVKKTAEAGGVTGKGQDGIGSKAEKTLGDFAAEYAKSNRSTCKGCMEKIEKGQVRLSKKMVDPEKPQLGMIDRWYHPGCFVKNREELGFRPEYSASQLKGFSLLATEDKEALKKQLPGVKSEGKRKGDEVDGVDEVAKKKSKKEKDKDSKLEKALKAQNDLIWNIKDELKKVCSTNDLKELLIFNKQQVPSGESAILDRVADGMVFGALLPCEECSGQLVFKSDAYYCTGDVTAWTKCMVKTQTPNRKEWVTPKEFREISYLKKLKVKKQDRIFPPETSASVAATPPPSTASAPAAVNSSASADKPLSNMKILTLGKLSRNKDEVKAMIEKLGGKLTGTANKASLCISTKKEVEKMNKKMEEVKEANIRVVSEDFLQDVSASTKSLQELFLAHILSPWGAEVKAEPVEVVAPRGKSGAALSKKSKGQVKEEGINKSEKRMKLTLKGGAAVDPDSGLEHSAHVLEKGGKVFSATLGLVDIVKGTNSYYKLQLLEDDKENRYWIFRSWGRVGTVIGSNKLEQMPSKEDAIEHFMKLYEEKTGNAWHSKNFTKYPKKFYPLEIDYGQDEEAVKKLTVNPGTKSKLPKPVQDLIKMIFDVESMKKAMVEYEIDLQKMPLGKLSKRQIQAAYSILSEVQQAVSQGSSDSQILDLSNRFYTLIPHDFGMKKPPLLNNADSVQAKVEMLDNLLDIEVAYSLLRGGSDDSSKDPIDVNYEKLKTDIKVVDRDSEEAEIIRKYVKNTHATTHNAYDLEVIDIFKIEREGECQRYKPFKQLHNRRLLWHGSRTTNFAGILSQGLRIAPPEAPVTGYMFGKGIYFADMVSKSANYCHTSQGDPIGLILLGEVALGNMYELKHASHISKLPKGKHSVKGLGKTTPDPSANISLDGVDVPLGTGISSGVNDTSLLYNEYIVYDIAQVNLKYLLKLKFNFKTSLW

% ID/g, Brain [1]: 0.04±0.01 % ID/g | % ID/g, Muscle [1]: 0.37±0.09 % ID/g | % ID/g, Tumor [1]: 1.82±0.21 % ID/g | in vitro blood stability [2]: excellent stability | in vitro blood stability ([2]; listed as C-2f): no radioactive metabolites were observed | alpha blood half-life (Blood half-life): 1.27 min | beta blood half-life (Blood half-life): 31.14 min | beta blood half-life, share of phase (Blood half-life): 14.49% | weighted blood half-life (Blood half-life; 50 μCi): 5.6 min | PET retained activity in tumor ([3]; animals receiving only C-2f): 2.15±0.79 % ID/g | PET retained activity in tumor ([3]; animals that received both olaparib and C-2f): 0.28±0.01 % ID/g | PET retained activity, C-2f only vs olaparib and C-2f ([3]; mouse, in vivo): eight-fold higher | autoradiography, retention in orthotopic tumor ([4]; C-2f only, 2 hours): 46.66±14.94 AU | autoradiography, retention in surrounding brain ([4]; C-2f only, 2 hours): 0.06±0.02 AU | autoradiography, muscle tissue ([4]; healthy mice): 1.50±0.31 AU | autoradiography, retention in orthotopic tumor ([4]; preinjection of olaparib): 0.44±0.41 AU | autoradiography, retention in surrounding brain ([4]; preinjection of olaparib): 0.03±0.01 AU | autoradiography, muscle tissue ([4]; tumor-bearing mice): 1.36±0.21 AU
Structure (SMILES): O=C(c1ccc([18F])cc1)N1CCN(C(=O)c2cc(Cc3n[nH]c(=O)c4ccccc34)ccc2F)CC1 [C-2f (^18F)]
reduction of C-2f by preinjection of olaparib ([4]; orthotopic tumor): 99%

Plasma protein binding [5]: 63.9 ± 12.6% | fraction unbound at 4 h ([5]; mouse, mouse serum): 0.36 | CHI ([6]; Table 3): 57.5 | logPCHI ([6]; Table 3): 2.15±0.41 | chromatographic logP ([6]; Table 3): 2.15 ± 0.41
Structure (SMILES): O=C(c1ccc(F)cc1)N1CCN(C(=O)c2cc(Cc3n[nH]c(=O)c4ccccc34)ccc2F)CC1 [c-2 (^19F)]
reduction of fluorescence intensity in the nucleus (U373 MG cells): 78.8%±10.4% | reduction of fluorescence intensity in the nucleus (U251 MG cells): 80.0%±10.8%

% plasma free fraction [5]: 7.0 ± 0.1% | CHI ([6]; Table 2): 66.7 | chromatographic logP ([6]; Table 2): 2.7 | IC50 (PARP1): 34 ± 3 nM
Structure (SMILES): O=C(Cc1cccc(I)c1)N1CCN(C(=O)c2cc(Cc3n[nH]c(=O)c4ccccc34)ccc2F)CC1 [c-3 (^127I), 4-(4-fluoro-3-(4-(2-(3-iodophenyl)acetyl)piperazine-1-carbonyl)-benzyl)phthalazin-1(2H)-one]

% plasma free fraction [5]: 4.7 ± 0.5% | CHI ([6]; Table 2): 71.6 | chromatographic logP ([6]; Table 2): 3 | IC50 (PARP1): 47 ± 5 nM
Structure (SMILES): O=C(CCc1ccc(I)cc1)N1CCN(C(=O)c2cc(Cc3n[nH]c(=O)c4ccccc34)ccc2F)CC1 [c-6 (^127I), 4-(4-fluoro-3-(4-(3-(4-iodophenyl)propanoyl)piperazine-1-carbonyl)benzyl) phthalazin-1(2H)-one]

Second part, the compound before the results:

Structure (SMILES): O=c1[nH]c(=O)n([C@H]2C[C@H](O)[C@@H](CO)O2)cc1I [^123I-IdUrd, 5-iodo-2′-deoxy uridine]
RBE (V79 cells): ~7

Structure (SMILES): O=C(c1cccc(I)c1)N1CCN(C(=O)c2cc(Cc3n[nH]c(=O)c4ccccc34)ccc2F)CC1 [c-1 (^127I), 4-(4-fluoro-3-(4-(3-iodobenzoyl)piperazine-1-carbonyl)benzyl)-phthalazin-1(2H)-one]
% plasma free fraction [5]: 9.6 ± 1.5%

Structure (SMILES): O=C(c1ccc(I)cc1)N1CCN(C(=O)c2cc(Cc3n[nH]c(=O)c4ccccc34)ccc2F)CC1 [c-2 (^127I), 4-(4-fluoro-3-(4-(4-iodobenzoyl)piperazine-1-carbonyl)benzyl)-phthalazin-1(2H)-one]
% plasma free fraction [5]: 11.5 ± 0.1%

Structure (SMILES): O=C(Cc1ccc(I)cc1)N1CCN(C(=O)c2cc(Cc3n[nH]c(=O)c4ccccc34)ccc2F)CC1 [c-4 (^127I), 4-(4-fluoro-3-(4-(2-(4-iodophenyl)acetyl)piperazine-1-carbonyl)-benzyl)phthalazin-1(2H)-one]
% plasma free fraction [5]: 5.0 ± 0.3% | CHI ([6]; Table 2): 66.7 | chromatographic logP ([6]; Table 2): 2.7 | IC50 (PARP1): 74 ± 5 nM

Structure (SMILES): O=C(CCc1cccc(I)c1)N1CCN(C(=O)c2cc(Cc3n[nH]c(=O)c4ccccc34)ccc2F)CC1 [c-5 (^127I), 4-(4-fluoro-3-(4-(3-(3-iodophenyl)propanoyl)piperazine-1-carbonyl)benzyl)phthalazin-1(2H)-one]
% plasma free fraction [5]: 7.8 ± 1.4% | CHI ([6]; Table 2): 71.6 | chromatographic logP ([6]; Table 2): 3 | IC50 (PARP1): 107 ± 4 nM

Structure (SMILES): O=C(c1cc(Cc2n[nH]c(=O)c3ccccc23)ccc1F)N1CCN(C(=O)C2CC2)CC1 [olaparib, 4-[3-(4-cyclopropanecarbonylpiperazine-1-carbonyl)-4-fluorobenzyl]-2H-phthalazin-1-one, reference compound]
Plasma protein binding [5]: 65% | reduction of fluorescence intensity in the nucleus (U373 MG cells): 71.2%±20.0% | reduction of fluorescence intensity in the nucleus (U251 MG cells): 69.6%±22.3% | CHI [7]: 34.1 | logPCHI [7]: 0.8
